Values of other authors, collected in patent publication US6815463B2, “Laulimalide derivatives” (Kosan Biosciences, Inc., priority 2001, dated 2004).

Test system: microtubules
Details: for stabilization of microtubules: similar to paclitaxel, Mooberry et al. 1999, WO 01/54689

SMILES | potency as stabilizer of microtubule polymerization relative to laulimalide (comparison with laulimalide) | stabilization of microtubules
C=C1C[C@H](C)C[C@@H]2CC=C[C@@H](C/C=C\C(=O)O[C@H]3C[C@@H](O[C@H]3/C=C/[C@@H]3CC(C)=CCO3)[C@@H](O)[C@@H](O)C1)O2 [isolaulimalide] | less potent stabilizer of microtubule polymerization than laulimalide | potent stabilizers of microtubules
C=C1C[C@H](C)C[C@@H]2CC=C[C@@H](C/C=C\C(=O)O[C@H]([C@@H](O)/C=C/[C@@H]3CC(C)=CCO3)C[C@@H]3O[C@H]3[C@@H](O)C1)O2 [laulimalide, Laulimalide] | – | potent stabilizers of microtubules
